Laboratory results reported in publication PMC6273963, “Design, Synthesis, and Biological Evaluation of Some Novel Pyrrolizine Derivatives as COX Inhibitors with Anti-Inflammatory/Analgesic Activities and Low Ulcerogenic Liability” (Molecules, 2016).
“Also recorded” adds a separate entry of the source.

Tests used:
thermal pain (hot plate) = experiment: Hot-plate test (analgesic activity); assay type: in vivo, rat; details: IP; for analgesic potency relative to ibuprofen: 0.48 mmol/kg; for analgesic activity (in words): 0.24 and 0.48 mmol/kg, 2 h after injection, compared with ibuprofen
Protocol: A hot-plate was used to induce thermal pain and the cutoff time was fixed to 15 s [30]. […] The analgesic activity of the novel pyrrolizines were carried out using the thermal model (hot-plate test) according to a previous report [30]. An electronically controlled hot-plate (Harvard Apparatus Ltd., Kent, UK) was used and the cut-off time was 15 s and the temperature was adjusted to 52 ± 0.1 °C. Animals were then divided into groups of six animal each. Rats were assigned numbers of 1–6 in each group. The reference drug was given intraperitoneally at a dose of 50 mg/kg (0.24 mmol/kg) and 100 mg/kg (0.48 mmol/kg). […] The response latencies (time elapsed until licking paw or jumping) were measured and expressed as mean ± SEM. The percent changes (analgesic effects) of the tested compounds were calculated as percent change in latencies divided by baseline time (100 × (T1 − T0)/T0) and results were expressed as % change ± SEM, Figure 6.

[1] = tested on: carrageenan-induced rat paw edema; experiment: Carrageenan-induced rat paw edema model (anti-inflammatory activity); assay type: in vivo; parameters: key to Potency (anti-inflammatory activity of tested compound/ibuprofen): ratio of % inhibition of edema (compound / ibuprofen); ibuprofen = 1.00; details: for % Inhibition in Edema Thickness 1 h: 1 h after induction of inflammation; for % Inhibition in Edema Thickness 1 h / % Inhibition in Edema Thickness 2 h / % Inhibition in Edema Thickness 3 h: IP, dose molecularly equivalent to ibuprofen, n = 6; for % Inhibition in Edema Thickness 2 h: 2 h after induction of inflammation; for % Inhibition in Edema Thickness 3 h: 3 h after induction of inflammation; for Potency (anti-inflammatory activity of tested compound/ibuprofen): after 3 h of induction of inflammation, relative to ibuprofen; for anti-inflammatory activity (in words): compared with ibuprofen and parent compound 12
Description: The carrageenan-induced rat paw edema model was utilized to investigate the anti-inflammatory activity of compounds 12–19 relative to ibuprofen as a reference drug.
(§1) Adult albino rats of both sex weighing 100–140 g were used in evaluation of the anti-inflammatory, analgesic, ulcerogenic activity in addition to the histopathological study of the new pyrrolizines 12–19. Animal ethical use clearance was obtained from the Ethical Committee at the College of Pharmacy, Umm Al-Qura University. Normalization of the animals with laboratory conditions were achieved by keeping them in laboratory one week before starting the experiments. Standard rat pellet diet was used for feeding animals and water ad libitum.
The anti-inflammatory activity of the novel compounds 12–19 was evaluated in comparison with ibuprofen as a standard, using a rat paw edema model as described by Winter et al.. Adult albino rats of both sexes (100–140 gm) were used. Rats were uniformly hydrated by giving 3 mL water for each rat through gastric inoculation to reduce variability to edema response. Animals were then divided into groups of six animal each. The control group was given saline solution containing few drops of sodium carboxymethyl cellulose (CMC) 1% and DMSO. Ibuprofen (50 and 100 mg/kg) was given as standard drug. The new compounds 12–19 in a dose molecularly equivalent to ibuprofen were dissolved in 0.5 mL DMSO and CMC 1% was added dropwise with continuous triturating to complete the specified volume. The tested compounds were administered intraperitoneally (IP). The induction of inflammation was achieved by subcutaneous (SC) injection of carrageenan-sodium gel, into the sub-plantar region of the right hind paw. The dorsoventral diameter (thickness) of the right and left hind paw of each rat was measured using digital calipers with accuracy of 0.01 mm (Cole-Parmer, Vernon Hills, IL, USA). The thickness of edema was measured 1, 2 and 3 h after induction of inflammation. The left hind paw diameter served as a control for the degree of inflammation in the right hind paw. The changes in the edema thickness were expressed as mean ± SEM, Figure 4. The anti-inflammatory activity was calculated as % inhibition of inflammation = (1 − Lt/Lc) × 100. Where Lt is the mean increase in paw thickness in rats treated with the tested compounds and Lc is the mean increase in paw thickness in control group. Data were collected, and statistically analyzed by One way ANOVA followed by student-Newman-Keuls multiple comparison test, Table 2.

rat stomach mucosa = experiment: Acute ulcerogenicity study; assay type: in vivo; details: oral, 0.48 mmol/kg; for Ulcerogenicity UI (ulcer index): three days, n = 6
Protocol: GIT toxicity is the main serious side effect of the NSAIDs. In this work, the ulcerogenicity of the novel compounds 12–19 was evaluated according to the previous reported methodology. The tested compounds 12–19 and ibuprofen were given orally in a dose of 0.48 mmol/kg.
as §1
GIT toxicity was evaluated according to the previous report. Adult albino rats of both sexes were divided into groups of six animals each. The test compounds were dissolved first in 0.5 mL DMSO, then CMC (1%) was added dropwise with trituration. Rats were fasted 20 h before drug administration. The eight tested compounds and ibuprofen were given orally in a dose of 0.24 and 0.48 mmol/kg/day suspended in 1% CMC, while the control group received vehicle (1% CMC containing few drops of DMSO). Rats were then fasted for 2 h, allowed to feed for 2 h then fasted again for another 20 h. Other doses were given in the second and third days. In the fourth day, Pentobarbital (60 mg/kg IP) was used to induce deep anesthesia then rats were sacrificed. The stomachs were removed, opened along with the greater curvature and rinsed with 0.9% saline. The number of mucosal damages (red spots) were counted using magnifying lens and their severity (ulcerogenic severity) was graded in a scale from 0 to 3 as follows: (0) normal (no injury), (0.5) red coloration, (1) spot ulcer, (1.5) hemorrhagic streaks, (2) ulcer > 3 mm, (3) ulcer > 5 mm. The ulcer index was calculated using the following equation ulcer index (UI) = UN + US + UP/10, where UN is the average number pf ulcers per animal, US is the average of severity score, UP is the percent of animal with ulcer.

[2] = target: T1, COX-2 (human recombinant) (Homo sapiens, UniProt P35354); experiment: COX colorimetric inhibitor screening assay, COX-2; details: for SI (COX-2 selectivity index = IC50 of COX-1/IC50 of COX-2): in vitro
T1 sequence (P35354 18-604): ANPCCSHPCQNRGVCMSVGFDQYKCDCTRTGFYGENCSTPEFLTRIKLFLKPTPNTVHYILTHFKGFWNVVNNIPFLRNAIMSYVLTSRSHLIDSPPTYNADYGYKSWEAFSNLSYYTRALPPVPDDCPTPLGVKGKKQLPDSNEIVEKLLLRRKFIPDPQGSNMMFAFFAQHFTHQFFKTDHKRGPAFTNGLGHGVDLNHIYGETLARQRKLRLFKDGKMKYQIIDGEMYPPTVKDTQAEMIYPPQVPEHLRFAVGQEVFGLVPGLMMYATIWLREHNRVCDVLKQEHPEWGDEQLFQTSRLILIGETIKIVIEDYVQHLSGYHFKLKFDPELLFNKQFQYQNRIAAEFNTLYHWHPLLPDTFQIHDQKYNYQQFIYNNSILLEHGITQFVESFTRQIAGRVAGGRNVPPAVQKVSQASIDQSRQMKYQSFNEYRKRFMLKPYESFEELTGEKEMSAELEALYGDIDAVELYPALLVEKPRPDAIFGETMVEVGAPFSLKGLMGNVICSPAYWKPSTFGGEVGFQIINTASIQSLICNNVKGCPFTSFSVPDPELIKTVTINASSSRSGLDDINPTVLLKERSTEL

[3] = tested on: stomach mucosa, submucosa and mucosal glands; experiment: Histopathological study of rat stomach; assay type: in vivo; details: rats of the ulcerogenicity test, haematoxylin and eosin stain
Description: The stomachs of the rats used in ulcerogenicity test were subjected to a histopathological study to visualize the deep effects of ibuprofen and tested compounds on the stomach mucosa, submucosa and mucosal glands. The specimens were stained with haematoxylin and eosin stain [33].
The study investigated the deep effect of the tested compounds on the mucosa, submucosa and mucosal gland. The stomachs which were opened longitudinally along the greater curvature were used and the specimens were taken from the stomachs of all cases. These specimens were fixed in 10% formalin solution for 72 h. The samples were processed and embedded in paraffin wax. Microtomy was done and 5 microns tissue sections were obtained and mounted on clean glass slides.

COX-1 (ovine) = target: T2, COX-1 (ovine) (Ovis aries, UniProt P05979); experiment: COX colorimetric inhibitor screening assay, COX-1
T2 sequence (P05979 25-600): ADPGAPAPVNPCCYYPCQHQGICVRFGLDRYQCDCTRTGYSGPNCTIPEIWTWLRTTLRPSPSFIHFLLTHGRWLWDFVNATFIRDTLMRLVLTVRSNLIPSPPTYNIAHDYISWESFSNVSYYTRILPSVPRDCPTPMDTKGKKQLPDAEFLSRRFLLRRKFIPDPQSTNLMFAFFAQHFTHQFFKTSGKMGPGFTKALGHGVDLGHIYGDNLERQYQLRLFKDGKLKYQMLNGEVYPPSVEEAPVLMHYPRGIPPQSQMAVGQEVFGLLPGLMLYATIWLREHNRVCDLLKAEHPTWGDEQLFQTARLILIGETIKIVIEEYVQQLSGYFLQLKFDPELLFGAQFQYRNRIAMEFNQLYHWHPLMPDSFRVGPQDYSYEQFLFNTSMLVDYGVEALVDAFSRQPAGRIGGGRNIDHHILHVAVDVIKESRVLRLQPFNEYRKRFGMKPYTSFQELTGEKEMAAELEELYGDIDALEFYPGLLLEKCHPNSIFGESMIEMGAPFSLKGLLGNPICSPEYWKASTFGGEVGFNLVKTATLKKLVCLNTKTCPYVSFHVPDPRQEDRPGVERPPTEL

Row | Compound | IC50 [2] [nM] | SI (COX-2 selectivity index = IC50 of COX-1/IC50 of COX-2) [2] | IC50 (COX-1 (ovine)) [µM] | analgesic potency relative to ibuprofen (thermal pain (hot plate)) [times] | analgesic activity (in words) (thermal pain (hot plate)) | % Inhibition in Edema Thickness 1 h [1] [%] | % Inhibition in Edema Thickness 2 h [1] [%] | % Inhibition in Edema Thickness 3 h [1] [%] | Potency (anti-inflammatory activity of tested compound/ibuprofen) [1] | anti-inflammatory activity (in words) [1] | Ulcerogenicity UI (ulcer index) (rat stomach mucosa) | Ulcerogenicity % Protection (% inhibition of ulcer relative to ibuprofen) (rat stomach mucosa) [%] | histopathological findings in stomach transverse sections [3]
1 | N#Cc1c(N)c(C(=O)Nc2ccc(Br)cc2)n2c1CCC2 [Compound 12, 6-Amino-N-(4-bromophenyl)-7-cyano-2,3-dihydro-1H-pyrrolizine-5-carboxamide] | 1270 | 3.64 | 4.64 | 1.03 to 1.27 | higher analgesic activity than ibuprofen | 21.20 | 37.40 | 44.79 | 1.10 | higher anti-inflammatory activity than that of ibuprofen | 4.66 | 66.38 | variable degrees of necrosis with some leukocytes infiltration
2 | N#Cc1c(NC(=O)c2ccccc2)c(C(=O)Nc2ccc(Br)cc2)n2c1CCC2 [Compound 16, 6-Benzamido-N-(4-bromophenyl)-7-cyano-2,3-dihydro-1H-pyrrolizine-5-carboxamide] | 850 | 2.89 | 2.45 | 1.03 to 1.27 | higher analgesic activity than ibuprofen; also recorded: good activity comparable to that of ibuprofen | 29.95 | 37.80 | 50.58 | 1.24 | – | 2.26 | 83.69 | normal mucosal glands with no histopathological effects
3 | CC(C)Cc1ccc(C(C)C(=O)O)cc1 (centres unmarked) [Ibuprofen, reference compound] | – | – | – | – | – | 25.81 | 33.46 | 40.82 | 1.00 | – | 13.86 | 0 | severe damage represented by leukocytes infiltration and necrosis in the mucosa layer with hypertrophy in mucosal glands

Further lines, with some results ahead:

Row | IC50 [2] [nM] | SI (COX-2 selectivity index = IC50 of COX-1/IC50 of COX-2) [2] | IC50 (COX-1 (ovine)) [µM] | Compound | analgesic potency relative to ibuprofen (thermal pain (hot plate)) [times] | analgesic activity (in words) (thermal pain (hot plate)) | % Inhibition in Edema Thickness 1 h [1] [%] | % Inhibition in Edema Thickness 2 h [1] [%] | % Inhibition in Edema Thickness 3 h [1] [%] | Potency (anti-inflammatory activity of tested compound/ibuprofen) [1] | anti-inflammatory activity (in words) [1] | Ulcerogenicity UI (ulcer index) (rat stomach mucosa) | Ulcerogenicity % Protection (% inhibition of ulcer relative to ibuprofen) (rat stomach mucosa) [%] | histopathological findings in stomach transverse sections [3]
4 | 1640 | 3.48 | 5.69 | N#Cc1c(NC(=O)CCl)c(C(=O)Nc2ccc(Br)cc2)n2c1CCC2 [Compound 13, N-(4-Bromophenyl)-6-(2-chloroacetamido)-7-cyano-2,3-dihydro-1H-pyrrolizine-5-carboxamide] | 1.03 to 1.27 | higher analgesic activity than ibuprofen | 16.13 | 35.43 | 52.31 | 1.28 | the highest anti-inflammatory activity | 4.41 | 68.18 | variable degrees of necrosis with some leukocytes infiltration
5 | 1090 | 3.21 | 3.5 | CN1CCN(CC(=O)Nc2c(C#N)c3n(c2C(=O)Nc2ccc(Br)cc2)CCC3)CC1 [Compound 14, N-(4-Bromophenyl)-7-cyano-6-(2-(4-methylpiperazin-1-yl)acetamido)-2,3-dihydro-1H-pyrrolizine-5-carbox-amide] | – | lower than that of ibuprofen; also recorded: the least active | 8.30 | 9.84 | 16.37 | 0.40 | the least active one | 4.66 | 66.38 | variable degrees of necrosis with some leukocytes infiltration
6 | 1060 | – | 3.37 | N#Cc1c2c(n3c1CCC3)C(=O)N(c1ccc(Br)cc1)CC(=O)N2 [Compound 15, 4-(4-Bromophenyl)-2,5-dioxo-1,2,3,4,5,7,8,9-octahydro-[1,4]diazepino[5,6-b]pyrrolizine-10-carbonitrile] | – | lower than that of ibuprofen | 10.60 | 16.54 | 24.91 | 0.61 | – | – | – | little histopathological effects such as congested blood vessels and variable degrees of leukocytes infiltration
